Source: patent publication US12486528B2, “Compositions and methods for measuring and inhibiting calpain-5 activity” (The Board of Trustees of the Leland Stanford Junior …, priority 2019, dated 2025)
Numbering of substitutions follows the chain as printed. Read-outs that look alike come from different tables or passages of the source. Each block holds one molecule with its values, some of them ahead of it. No end group written: not given here.

Legend:
CAPN5 wild-type = CAPN5 wild-type (Homo sapiens, UniProt O15484); assay: FRET-based CAPN5 inhibition assay, wild-type protease; type: biochemical; settings: for IC50: CAPN5 WT; for inhibition of wildtype CAPN5: CAPN5 wild-type
Method: (§1) We have optimized the CAPN5 assay and developed a high throughput CAPN5 inhibition assay which utilizes 384-well plates and uses less than 50 nM protease for each experimental condition. Calpain proteolytic activity was measured by hydrolysis of DABCYL-TPLKSPPPSPR (SEQ ID NO:3)-EDANS (Calpain Substrate III; Calbiochem). Briefly, 50 nM of purified CAPN5-G267S protease core domain was added to a reaction buffer containing 50 mM imidazole (pH 7.0), 200 mM NaCl, 20 mM CaCl2, 1 mM EDTA, 8 mM Li-acetate, 0.19 mM Facade®-EPC, 1 mM TCEP, 0.8% (v/v) glycerol, 4% (v/v) 1,3-butanediol. 8 μL of protease was added to each well of the 384-well plates. Varying concentrations of […] (final concentration of 0.1 μM to 100 μM; 4 μL in each well) were added and the reaction was incubated at 37° C. for 30 minutes. After incubation, 8 μL of Calpain Substrate III was added to each well (final concentration of 40 μM; total reaction volume was 20 μL) and EDANS signal was measured on a fluorimetric plate reader (Tecan Spark, Mannedorf Switzerland). All experiments were performed in triplicate. Reaction rates were fit to the Hill equation to determine the IC50 values in GraphPad Prism 8. This assay condition is compatible with CAPN1 and CAPN5 wild-type. We have chosen CAPN5-G267S for initial inhibitor screening, since it has higher activity than CAPN5 wild-type and the mutation is located at the G2-loop which is away from the active site that is likely to have identical specificity to CAPN5 wild-type specificity.
(§2) We have identified the PDGFB protein as a substrate. We discovered a likely proteolytic site for CAPN5 on PDGFB, and sought to use this information to inhibit proteolysis assuming the alteration of a robust endogenous substrate of CAPN5 would create an opportunity for more specific inhibition of CAPN5. We generated two artificial peptides by methylating only P1-Lysine (1-Methylated; FIG. 7A) or both P1-Lysine and P1′-Lysine (2-Methylated; FIG. 7B) expecting the methylation would make the PDGFB peptide motif resistant to CAPN5 proteolysis. We tested their inhibitory potential against CAPN5-G267S using our high throughput FRET-based CAPN5 inhibition assay. […] We further tested them with the CAPN5 wild-type and CAPN5-R243L mutant proteases. Both methylated PDGFB peptides inhibited CAPN5-R243L activity at the nanomolar IC50 (FIG. 7E).

CAPN5-R243L = CAPN5-R243L (Homo sapiens, UniProt O15484, R243L); assay: FRET-based CAPN5 inhibition assay, R243L mutant protease; type: biochemical
Method: as §1, §2

CAPN5-PC p.G267S = target: T1, CAPN5-PC p.G267S (Homo sapiens, UniProt O15484, G267S); assay: In vitro CAPN5 activity assay with consensus FRET peptides; type: biochemical; settings: 1.6 μM CAPN5-PC p.G267S, 10 mM Ca^2+
T1 construct: active recombinant CAPN5 protease core (CAPN5-PC)
T1 sequence (O15484 26-343 G267S limits assumed): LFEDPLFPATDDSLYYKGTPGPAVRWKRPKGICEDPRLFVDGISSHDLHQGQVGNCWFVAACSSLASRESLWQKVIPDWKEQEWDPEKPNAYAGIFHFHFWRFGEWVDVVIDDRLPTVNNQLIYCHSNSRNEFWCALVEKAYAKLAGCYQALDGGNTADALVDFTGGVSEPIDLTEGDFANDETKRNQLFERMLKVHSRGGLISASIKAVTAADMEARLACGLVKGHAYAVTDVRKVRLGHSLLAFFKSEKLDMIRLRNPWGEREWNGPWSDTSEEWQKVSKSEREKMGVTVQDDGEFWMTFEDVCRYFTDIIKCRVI
Method: Consensus FRET peptides were synthesized based on the highest scoring amino acids at each position of the PSSM (Peptides P4′A, P4′P, P2R, and P3GP1′ V) and were tested in our in vitro CAPN5 activity assay (FIG. 9B). These substrates were hydrolyzed by 1.6 μM CAPN5-PC p.G267S in the presence of 10 mM Ca^2+. […] The catalytic efficiency (kcat/Km) of this peptide was higher than the observed kcat/Km for our previously determined PR1476 peptide (11 vs. 7 M^−1s^−1; FIG. 9D).

[1] = target: T2, Calpain-5 protease core domain (CAPN5-PC) (Homo sapiens, UniProt O15484); assay: CAPN5 functional assay (FRET peptide substrate kinetics)
T2 sequence (O15484 26-343 limits assumed): T1 sequence (O15484 26-343 G267S limits assumed) with S242G
Method: The assay was performed using a Greiner 96-well Black Small Volume plate according to the following protocol for measuring enzymatic activity of the calpain-5 protease: • Dilute CAPN5 in activity buffer to make a master mix at 3 concentrations. • Add 50 μL of substrate diluted with activity buffer (7 working concentrations at 2×). • Add 50 μL of CAPN5 to each well with multi-channel pipette. • Measure fluorescence activity (336/490 nm) on Tecan Spark at 37° C. for 2 hours with recordings taken every 2 minutes (with lid). • Convert RFU values to nM product using standard curve of EDANS concentrations (2 nM to 5 μM). • Calculate reaction velocity (slope) at each substrate concentration using linear regression. • Calculate Michaelis-Menten kinetic parameters in GraphPad Prism 8.

Human CAPN5-PC = Human CAPN5-PC (Homo sapiens, UniProt O15484); assay: Human CAPN5-PC | Ki (µM)
Method: Table printed on a drawing sheet, FIG. 1C
Head of the field: Human CAPN5-PC | Ki (µM)
The patent's description of the figure: FIGS. 1A-1C show kinetic analysis of human CAPN5 and rat CAPN1 with the peptide substrates, RQNRGGGCINH (SEQ ID NO:1, FIG. 1A) and PLFAER (SEQ ID NO:2, FIG. 1B).
FIGS. 1A-1B show kinetic analysis of human CAPN5 and rat CAPN1 with the peptide substrates, RQNRGGGCINH (SEQ ID NO:1, FIG. 1A) and PLFAER (SEQ ID NO:2, FIG. 1B) using this protocol. […] A 10 mM PR1476 master stock was prepared in 100% DMSO. 3.69 mM PR1478 master stock was prepared in 50% DMSO/50% activity buffer.
First copying reader's note: Enzyme kinetic parameters of peptide substrates with calpain protease cores; the ± error stands inside the cells.
Where the first naming reader finds the target: head: Human CAPN5-PC

Sequence of CAPN5-R243L (O15484 whole entry R243L): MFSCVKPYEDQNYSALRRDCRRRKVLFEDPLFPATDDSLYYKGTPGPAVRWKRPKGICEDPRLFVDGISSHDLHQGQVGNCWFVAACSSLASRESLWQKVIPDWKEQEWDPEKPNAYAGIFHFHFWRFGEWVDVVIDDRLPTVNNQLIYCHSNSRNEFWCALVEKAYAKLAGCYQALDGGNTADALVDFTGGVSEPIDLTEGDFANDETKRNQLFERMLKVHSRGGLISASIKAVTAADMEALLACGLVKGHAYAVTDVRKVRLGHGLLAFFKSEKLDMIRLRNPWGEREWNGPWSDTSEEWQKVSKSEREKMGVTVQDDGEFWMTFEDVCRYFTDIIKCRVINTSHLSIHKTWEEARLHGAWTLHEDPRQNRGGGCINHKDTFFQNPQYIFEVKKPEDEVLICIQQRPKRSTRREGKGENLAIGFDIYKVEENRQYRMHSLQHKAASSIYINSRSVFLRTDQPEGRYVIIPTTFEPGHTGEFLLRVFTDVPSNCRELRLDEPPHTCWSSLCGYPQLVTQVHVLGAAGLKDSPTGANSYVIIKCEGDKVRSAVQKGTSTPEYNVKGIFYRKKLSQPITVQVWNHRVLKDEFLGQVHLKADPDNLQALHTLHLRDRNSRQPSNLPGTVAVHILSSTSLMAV
Sequence of CAPN5 wild-type (O15484 whole entry, the tested form may be a part): as the sequence (O15484 whole entry R243L) above, with L243R counted along it
Sequence of Human CAPN5-PC (O15484 26-343): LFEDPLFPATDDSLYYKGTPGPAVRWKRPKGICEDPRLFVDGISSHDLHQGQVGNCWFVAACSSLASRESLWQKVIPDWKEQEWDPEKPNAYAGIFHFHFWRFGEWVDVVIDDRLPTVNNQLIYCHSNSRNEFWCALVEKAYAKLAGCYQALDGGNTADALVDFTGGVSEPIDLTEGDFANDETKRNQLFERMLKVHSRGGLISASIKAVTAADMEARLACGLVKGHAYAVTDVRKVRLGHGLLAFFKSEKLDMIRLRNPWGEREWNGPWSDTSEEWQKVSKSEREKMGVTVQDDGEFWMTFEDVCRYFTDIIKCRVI

Molecule: CCCC[C@@H](C=O)NC(=O)[C@H](CC(C)C)NC(=O)OCc1ccccc1 [Calpeptin]
IC50 (CAPN5 wild-type): nanomolar
inhibition of wildtype CAPN5 (CAPN5 wild-type): inhibit the wildtype
inhibition of CAPN5-R243L (mutant CAPN5) (CAPN5-R243L): did not show any inhibition
inhibition of CAPN5-R243L (mutant CAPN5) (CAPN5-R243L; listed as calpeptin): not the mutant CAPN5

Molecule: CC(=O)N[C@@H](CC(C)C)C(=O)N[C@@H](CC(C)C)C(=O)N[C@H](C=O)CCCNC(=N)N [Leupeptin]
IC50 (CAPN5 wild-type): nanomolar
inhibition of wildtype CAPN5 (CAPN5 wild-type): inhibit the wildtype
inhibition of CAPN5-R243L (mutant CAPN5) (CAPN5-R243L): did not show any inhibition
inhibition of CAPN5-R243L (mutant CAPN5) (CAPN5-R243L; listed as leupeptin): not the mutant CAPN5

hydrolysis by CAPN5-PC p.G267S (CAPN5-PC p.G267S): hydrolyzed
Molecule: EGKAVLEA (also: FRET labels, places not given here) [P3GP1′V, consensus FRET peptide substrate of calpain-5]

hydrolysis by CAPN5-PC p.G267S (CAPN5-PC p.G267S): hydrolyzed
Molecule: EVKALEEA (also: FRET labels, places not given here) [P4′A, consensus FRET peptide substrate of calpain-5]

hydrolysis by CAPN5-PC p.G267S (CAPN5-PC p.G267S): hydrolyzed
Molecule: EVKALEEP (also: FRET labels, places not given here) [P4′P, consensus FRET peptide substrate of calpain-5]

Molecule: EVRALEEA (also: FRET labels, places not given here) [P2R, consensus FRET peptide substrate of calpain-5]
hydrolysis by CAPN5-PC p.G267S (CAPN5-PC p.G267S): hydrolyzed
substrate turnover (kcat), preference (CAPN5-PC p.G267S): preferred by CAPN5-PC

Molecule: RQNRGGGCINH (N-terminal Dabcyl, EDANS on glutamate, C-terminal cap; calpain-5 peptide substrate) [PR1476]
activity as substrate with CAPN5 ([1]; CAPN5 0, 0.16, 0.49, 1.6 μm, peptide 0 μM to 160 μM): displays activity in a CAPN5 dose-dependent manner
substrate quality / sensitivity to CAPN5-PC activity ([1]; comparison between substrates): more sensitive than other generic calpain substrates

Ki (Human CAPN5-PC): 43 ± 14 µM
Molecule: RQNRGGGCINH (not fully specified (N-terminus)) [PR1476]
